Experimental data from patent US20240058344A1, “METHODS OF TREATING NEURODEGENERATIVE DISORDERS AND STAT3-LINKED CANCERS USING SUPPRESSORS OF ELECTRON LEAK” (Cornell University, priority 2020, published 2024).

Key:
primary astrocytes = experiment: Intracellular ATP levels in primary astrocytes; format: cell-based
From the text: Antimycin A and myxothiazol were used as positive controls to inhibit mitochondrial respiration and ATP production. n=3 wells per condition. ***p<0.001 vs. vehicle, mixed-effects model with Dunnett's multiple comparisons test.

astrocytes = experiment: Oxygen consumption rates (mitochondrial respiration) in astrocytes; format: cell-based
From the text: Oxygen consumption rates (OCR) and maximal consumption rates are shown for indicated S3QEL2 concentrations and time points. Antimycin and rotenone were used as positive controls to inhibit mitochondrial respiration. ***p<0.001 vs. vehicle, two-way repeated measures ANOVA with Dunnett's multiple comparisons test.

Compound | Intracellular ATP levels (primary astrocytes) | Mitochondrial respiration (oxygen consumption rates, OCR) (astrocytes)
antimycin A | greatly reduce | greatly reduce
C=C(C)[C@H]1Cc2c(ccc3c2O[C@@H]2COc4cc(OC)c(OC)cc4[C@@H]2C3=O)O1 [rotenone] |  | greatly reduce
CO/C(=C/C(N)=O)[C@H](C)[C@H](/C=C/c1csc(-c2csc([C@@H](C)/C=C/C=C/C(C)C)n2)n1)OC [myxothiazol] | greatly reduce | 
